This note sets out measurements from ChEMBL document CHEMBL1201862, “PubChem BioAssay data set” (2004).

Structures are written as SMILES. Active and inactive are the calls of the source.

The target of test [1] is Beta-2 adrenergic receptor (Homo sapiens, UniProt P07550). The experiment in a line: ADRB2 activation measured by internalization – cell-based, FAP fluorogen, flow cytometry, cherry pick 1, dose response (AID 588763). Type of test: functional.
Another test deals with Mu-type opioid receptor (Homo sapiens, UniProt P35372). Type of test: functional, cell-based.
In test [2] the target is 5-hydroxytryptamine receptor 2A (Mus musculus, UniProt P35363). Type of test: functional, cell-based.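 Further: CHO-K1 cells with tagged receptor and beta-arrestin; agonist potency measured as compound-induced activation of the receptor.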
Sequence of 5-hydroxytryptamine receptor 2A (P35363 whole entry): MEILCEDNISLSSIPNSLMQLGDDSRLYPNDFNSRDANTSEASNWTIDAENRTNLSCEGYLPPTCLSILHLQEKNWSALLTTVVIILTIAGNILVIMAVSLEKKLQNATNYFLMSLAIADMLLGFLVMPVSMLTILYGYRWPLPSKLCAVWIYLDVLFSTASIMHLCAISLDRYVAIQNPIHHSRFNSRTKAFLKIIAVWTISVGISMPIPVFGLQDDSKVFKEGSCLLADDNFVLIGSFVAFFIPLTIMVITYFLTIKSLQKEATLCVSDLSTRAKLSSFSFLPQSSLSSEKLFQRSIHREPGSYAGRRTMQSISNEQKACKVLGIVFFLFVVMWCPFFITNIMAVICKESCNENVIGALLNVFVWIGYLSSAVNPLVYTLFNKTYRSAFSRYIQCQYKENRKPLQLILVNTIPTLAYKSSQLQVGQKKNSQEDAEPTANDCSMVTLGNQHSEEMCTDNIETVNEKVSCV
For test [3], the target named is DNA dC->dU-editing enzyme APOBEC-3A (Homo sapiens, UniProt P31941). The experiment in a line: A3A deaminase inhibition for selectivity – biochemical, dose response (AID 504722). The format is functional.
Sequence of DNA dC->dU-editing enzyme APOBEC-3A (P31941 whole entry): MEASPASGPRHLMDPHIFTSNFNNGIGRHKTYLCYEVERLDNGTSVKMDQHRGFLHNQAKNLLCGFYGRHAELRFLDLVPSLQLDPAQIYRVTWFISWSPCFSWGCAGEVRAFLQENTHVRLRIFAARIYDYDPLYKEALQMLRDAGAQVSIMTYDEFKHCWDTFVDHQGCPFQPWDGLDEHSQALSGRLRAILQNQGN
Test [4] has as its target DNA dC->dU-editing enzyme APOBEC-3G (Homo sapiens, UniProt Q9HC16). The experiment in a line: Dose Response confirmation of small molecule APOBEC3G DNA Deaminase Inhibitors via a fluorescence-based single-stranded DNA deaminase assay. [Related pubchem assays (depositor defined):AID493012, AID493028]. The format is functional.
For test [5], the target named is Beta-adrenergic receptor kinase 1 (Homo sapiens, UniProt P25098). The experiment in a line: aptamer displacement from bead-bound GRK2 – biochemical, cherry pick 1, bead flow cytometry, dose response (AID 504500).
Sequence of Beta-adrenergic receptor kinase 1 (P25098 whole entry, the tested form may be a part): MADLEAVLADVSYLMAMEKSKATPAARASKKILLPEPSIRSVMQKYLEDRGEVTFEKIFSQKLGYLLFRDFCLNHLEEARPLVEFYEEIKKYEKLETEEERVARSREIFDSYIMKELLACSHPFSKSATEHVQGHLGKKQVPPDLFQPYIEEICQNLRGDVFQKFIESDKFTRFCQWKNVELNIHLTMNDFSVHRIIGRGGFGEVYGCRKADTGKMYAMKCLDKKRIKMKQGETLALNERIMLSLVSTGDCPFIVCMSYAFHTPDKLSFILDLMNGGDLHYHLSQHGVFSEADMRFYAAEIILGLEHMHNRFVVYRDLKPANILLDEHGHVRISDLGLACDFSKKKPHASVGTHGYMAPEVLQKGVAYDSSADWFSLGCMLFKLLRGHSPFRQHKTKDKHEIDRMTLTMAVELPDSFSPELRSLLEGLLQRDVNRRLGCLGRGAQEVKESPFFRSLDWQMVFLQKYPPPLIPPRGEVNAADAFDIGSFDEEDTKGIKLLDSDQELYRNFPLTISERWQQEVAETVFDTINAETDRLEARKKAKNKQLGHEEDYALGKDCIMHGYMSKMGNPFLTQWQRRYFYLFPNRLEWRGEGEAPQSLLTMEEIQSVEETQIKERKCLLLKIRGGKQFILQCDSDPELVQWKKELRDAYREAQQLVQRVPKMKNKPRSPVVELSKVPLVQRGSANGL
For test [6], the target named is T1, Carboxy-terminal domain RNA polymerase II polypeptide A small phosphatase 1 (Homo sapiens, UniProt Q9GZU7).
T1 sequence (Q9GZU7 whole entry): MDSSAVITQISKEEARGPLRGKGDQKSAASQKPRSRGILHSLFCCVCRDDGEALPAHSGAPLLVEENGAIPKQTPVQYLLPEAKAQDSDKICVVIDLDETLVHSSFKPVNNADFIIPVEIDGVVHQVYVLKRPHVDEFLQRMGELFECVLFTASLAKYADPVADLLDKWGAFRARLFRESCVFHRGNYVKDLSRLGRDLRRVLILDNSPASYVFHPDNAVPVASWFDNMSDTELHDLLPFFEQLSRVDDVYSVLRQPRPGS
The test can be described thus: CTDSP1 inhibitors, concentration-response, biochemical, absorbance readout, ultra-high-throughput screen actives (AID 540297). Type of test: functional.

The target of test [7] is T2, Small ubiquitin-related modifier 1 (Homo sapiens, UniProt P63165). The test can be described thus: SUMO1 protein interaction blockers, potency – biochemical, fluorescence polarization, uHTS hits, dose response (AID 624382). The note with it: read-out: IC50_Mean. The format is functional. (In fluorescence polarisation assays a small probe gives low polarisation when free and higher when bound to something large.)
T2 sequence (P63165 whole entry): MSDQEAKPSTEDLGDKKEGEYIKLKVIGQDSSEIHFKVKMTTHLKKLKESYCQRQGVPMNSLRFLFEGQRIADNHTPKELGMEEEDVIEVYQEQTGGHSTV

Test [8] deals with T2, Small ubiquitin-related modifier 1. The experiment in a line: SUMO1 protein-protein binding blockers, potency – biochemical, FRET, dose response (AID 624383). Type of test: functional. As to conditions: read-out: IC50_Mean.
Test [9] can be described thus: viability loss in THP-1 monocytes – THP-1 cells, cytotoxicity control for Vif-APOBEC3G degradation inhibitor project, dose response (AID 1117359). As to conditions: THP-1. The format is functional.
Test [10] can be described thus: NIH-3T3 fibroblast cytotoxicity, dose response, cytotoxicity control, cell-based, fluorescence, Alamar Blue, secondary assay (AID 2327).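 Further: NIH-3T3 mouse fibroblasts cultured with fluconazole at 8 µg/mL.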 Type of test: functional.
Test [11] is described as follows: luciferase reporter signal suppression in cells – H4 neuroglioma cells, luminescence, dose response (AID 1990). Type of test: functional, cell-based. For orientation: Reporter assays use an easily measured gene product as a stand-in for the process of interest.
The subject of test [12] is BJ. The test can be described thus: BJ-TERT fibroblast viability loss – cell-based, RAS-independent, luminescence, dose response (AID 1933). As to conditions: Homo sapiens. Type of test: functional.
A short description of test [13]: Luminescence Cell-Based Dose Response HTS to Identify Inhibitors of 5'UTR Stem-Loop Driven Prion Protein mRNA Translation in H4 Neuroglioblastoma Cells. [Related pubchem assays: 1827 (Project Summary), 1813 (Primary HTS)]. The format is functional.
Test [14] addresses T3, Heat shock factor protein 1 (Mus musculus, UniProt P38532).
T3 sequence (P38532 whole entry): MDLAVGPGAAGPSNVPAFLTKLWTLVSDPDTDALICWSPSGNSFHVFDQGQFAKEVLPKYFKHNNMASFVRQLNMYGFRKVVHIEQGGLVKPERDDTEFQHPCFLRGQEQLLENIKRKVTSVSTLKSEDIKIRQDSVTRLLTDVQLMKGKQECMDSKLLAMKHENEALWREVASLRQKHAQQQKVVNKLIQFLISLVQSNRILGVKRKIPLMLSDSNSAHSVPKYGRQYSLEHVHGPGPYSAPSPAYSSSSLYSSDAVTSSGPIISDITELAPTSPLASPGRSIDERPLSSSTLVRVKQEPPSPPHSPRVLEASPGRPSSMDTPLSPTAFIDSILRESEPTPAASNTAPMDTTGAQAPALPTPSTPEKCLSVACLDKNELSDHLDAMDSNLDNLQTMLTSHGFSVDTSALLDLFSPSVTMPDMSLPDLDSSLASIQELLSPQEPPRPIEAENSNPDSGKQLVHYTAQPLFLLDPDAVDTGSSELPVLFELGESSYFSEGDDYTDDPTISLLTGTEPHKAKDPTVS
The experiment in a line: decrease of HSF1-responsive luciferase luminescence – cell-based, NIH3T3, dose retest, confirmation (AID 2382).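 Further: NIH3T3 fibroblasts with HSF1-driven luciferase reporter stressed by proteasome inhibitor MG132; luminescence from HSF1-driven luciferase expression after 8 hours of MG132 stress.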 The format is functional.

Test [15] is described as follows: alpha-synuclein stem-loop luciferase translation blockers – H4 neuroglioma cells, luminescence, confirmation (AID 1988). The format is functional, cell-based.
For test [16], the system named is BJ. The test can be described thus: cells. The format is functional, cell-based. As to conditions: Homo sapiens.
The nature of test [17]: fluconazole-exposed Candida albicans growth modulators – fluorescence, retest, confirmation (AID 2467). Type of test: functional, cell-based.
Test [18] is described as follows: Luminescence-based dose response cell-based high throughput screening assay for cytotoxic compounds using the IEC-6 intestinal epithelial cell line. [Related pubchem assays: 1858 (Summary AID.), 1825 (Counterscreen.), 1907 (Confirmation screen.)]. The format is functional.
For test [19], the system named is BJ. The test can be described thus: BJ-TERT-LT-ST fibroblast viability loss – cell-based, RAS-independent, luminescence, dose response (AID 1935).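 Further: BJ fibroblasts immortalized with TERT plus LT and ST oncogenes.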 Type of test: functional. As to conditions: Homo sapiens.
Test [20] can be described thus: DRD fibroblast viability loss – cell-based, non-viral oncogenic, luminescence, dose response (AID 1934). The format is functional. The note with it: Homo sapiens.
A short description of test [21]: HEK-293T viability loss after treatment – luminescence, T-cell screen hits, cytotoxicity control for TCR NF-kB inhibitor project, dose response (AID 489026).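 Further: cells exposed to compound about 14 hours before the viability readout.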 The format is functional, cell-based.
The target of test [22] is Heat shock protein HSP 90-alpha (Homo sapiens, UniProt P07900). The format is functional, organism-based.
In test [23] the test system is BJ. The test can be described thus: growth inhibition of engineered Ras-driven BJ cells – cell-based, alamar blue fluorescence, cherrypicked samples, dose response (AID 2631).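 Further: confirmatory dose-response assay in RAS-dependent BJ fibroblasts engineered with TERT, LT and ST, with cytotoxicity read by fluorescence.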 The format is functional. As to conditions: Homo sapiens. (In general: Resazurin is reduced to fluorescent resorufin, in cell work by metabolically active cells.)
Test [24] addresses T4, V-type proton ATPase subunit c' (Saccharomyces cerevisiae S288c, UniProt P32842). The experiment in a line: Dose Response of Small Molecules that Regulate V-ATPase Proton Transport in Yeast using pHLuorin, Cherry Pick 1. [Related pubchem assays (depositor defined):AID504622]. The format is functional.
For test [25], the target named is T4, V-type proton ATPase subunit c'. The experiment in a line: Dose Response of Small Molecules that Regulate V-ATPase Proton Transport in Yeast using pHLuorin, Cherry Pick 2. Type of test: functional. The note with it: read-out: EC50_MICROM.
The target in test [26] is T5, Fatty acid synthase (Homo sapiens, UniProt P49327). The test can be described thus: inhibition of human FAS-TE enzyme activity – biochemical, endpoint fluorescence intensity, uHTS hits, dose response (AID 624327).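 Further: fluorescence from hydrolysis of an O-methyl fluorescein acyl ester substrate by the enzyme.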 The format is functional.
T5 sequence (P49327 whole entry): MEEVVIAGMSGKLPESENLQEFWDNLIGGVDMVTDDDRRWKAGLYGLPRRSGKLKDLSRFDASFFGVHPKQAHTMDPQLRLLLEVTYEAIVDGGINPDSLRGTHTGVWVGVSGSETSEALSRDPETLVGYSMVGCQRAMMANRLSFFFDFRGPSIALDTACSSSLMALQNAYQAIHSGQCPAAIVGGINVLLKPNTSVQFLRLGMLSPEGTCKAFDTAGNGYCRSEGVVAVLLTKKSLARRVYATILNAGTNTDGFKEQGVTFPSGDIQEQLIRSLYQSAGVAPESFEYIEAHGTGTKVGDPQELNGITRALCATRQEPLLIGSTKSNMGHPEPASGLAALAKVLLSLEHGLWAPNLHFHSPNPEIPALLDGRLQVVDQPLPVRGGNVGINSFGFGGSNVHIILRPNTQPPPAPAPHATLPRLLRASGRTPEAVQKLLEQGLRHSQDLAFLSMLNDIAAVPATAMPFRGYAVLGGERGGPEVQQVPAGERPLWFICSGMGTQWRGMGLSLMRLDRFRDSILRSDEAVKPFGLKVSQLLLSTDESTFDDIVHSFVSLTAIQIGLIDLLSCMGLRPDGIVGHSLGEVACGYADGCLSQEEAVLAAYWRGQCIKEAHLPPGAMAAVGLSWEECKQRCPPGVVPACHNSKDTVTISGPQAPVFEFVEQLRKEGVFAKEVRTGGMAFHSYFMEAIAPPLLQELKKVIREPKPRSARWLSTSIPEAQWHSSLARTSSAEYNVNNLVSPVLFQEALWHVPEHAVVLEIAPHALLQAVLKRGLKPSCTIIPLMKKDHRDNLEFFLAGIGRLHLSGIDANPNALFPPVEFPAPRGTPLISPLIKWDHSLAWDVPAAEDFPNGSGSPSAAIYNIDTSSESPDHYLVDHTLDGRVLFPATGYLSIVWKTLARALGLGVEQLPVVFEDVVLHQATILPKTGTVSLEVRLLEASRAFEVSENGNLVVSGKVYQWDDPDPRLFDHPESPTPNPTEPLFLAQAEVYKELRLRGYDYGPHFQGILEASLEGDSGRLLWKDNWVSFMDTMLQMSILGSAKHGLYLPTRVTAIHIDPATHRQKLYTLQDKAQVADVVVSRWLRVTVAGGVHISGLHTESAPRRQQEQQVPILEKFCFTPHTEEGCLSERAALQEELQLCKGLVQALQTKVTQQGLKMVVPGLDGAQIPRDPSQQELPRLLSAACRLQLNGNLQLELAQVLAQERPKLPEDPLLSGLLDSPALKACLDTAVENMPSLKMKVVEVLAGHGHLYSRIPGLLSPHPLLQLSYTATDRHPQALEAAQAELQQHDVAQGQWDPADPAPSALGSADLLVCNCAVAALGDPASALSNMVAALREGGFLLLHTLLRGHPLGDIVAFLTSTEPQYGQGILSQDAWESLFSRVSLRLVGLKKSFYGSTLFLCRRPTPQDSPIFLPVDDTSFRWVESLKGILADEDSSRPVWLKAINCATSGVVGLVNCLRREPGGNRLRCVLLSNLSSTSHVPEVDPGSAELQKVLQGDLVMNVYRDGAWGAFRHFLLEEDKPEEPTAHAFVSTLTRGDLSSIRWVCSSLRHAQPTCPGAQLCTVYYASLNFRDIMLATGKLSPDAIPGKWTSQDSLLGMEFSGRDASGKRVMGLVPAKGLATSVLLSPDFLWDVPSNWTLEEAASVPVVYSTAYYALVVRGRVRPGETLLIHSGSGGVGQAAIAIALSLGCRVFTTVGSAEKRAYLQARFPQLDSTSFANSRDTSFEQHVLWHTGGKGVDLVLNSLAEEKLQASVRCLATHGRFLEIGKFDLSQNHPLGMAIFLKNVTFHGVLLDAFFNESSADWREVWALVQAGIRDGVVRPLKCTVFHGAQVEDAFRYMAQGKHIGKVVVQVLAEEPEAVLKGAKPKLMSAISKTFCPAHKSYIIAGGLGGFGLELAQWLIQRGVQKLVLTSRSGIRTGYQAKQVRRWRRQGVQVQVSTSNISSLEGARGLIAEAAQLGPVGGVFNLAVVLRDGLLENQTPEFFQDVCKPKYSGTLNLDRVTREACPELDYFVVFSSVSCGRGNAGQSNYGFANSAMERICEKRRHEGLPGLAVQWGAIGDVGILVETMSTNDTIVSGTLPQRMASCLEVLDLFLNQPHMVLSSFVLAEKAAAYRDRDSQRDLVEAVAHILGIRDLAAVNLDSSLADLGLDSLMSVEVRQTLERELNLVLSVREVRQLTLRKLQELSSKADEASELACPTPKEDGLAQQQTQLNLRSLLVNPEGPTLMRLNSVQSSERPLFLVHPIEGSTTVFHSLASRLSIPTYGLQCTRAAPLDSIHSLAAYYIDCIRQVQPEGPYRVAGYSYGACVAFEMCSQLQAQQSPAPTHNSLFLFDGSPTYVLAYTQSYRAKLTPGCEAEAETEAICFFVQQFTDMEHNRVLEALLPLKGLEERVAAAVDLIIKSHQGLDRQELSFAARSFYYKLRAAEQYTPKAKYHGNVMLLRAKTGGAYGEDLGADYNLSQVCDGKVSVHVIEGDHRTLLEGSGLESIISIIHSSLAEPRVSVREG
In test [27] the target is Mitochondrial peptide methionine sulfoxide reductase (Bos taurus, UniProt P54149). The format is functional.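 Further: absorbance read-out, biochemical high-throughput dose-response screen for MsrA inhibitors, confirmatory; recombinant bovine MsrA coupled to E. coli TrxB with NADPH and selenocystamine; potency is for inhibitors of MsrA activity on DMSO substrate.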
Sequence of Mitochondrial peptide methionine sulfoxide reductase (P54149 whole entry): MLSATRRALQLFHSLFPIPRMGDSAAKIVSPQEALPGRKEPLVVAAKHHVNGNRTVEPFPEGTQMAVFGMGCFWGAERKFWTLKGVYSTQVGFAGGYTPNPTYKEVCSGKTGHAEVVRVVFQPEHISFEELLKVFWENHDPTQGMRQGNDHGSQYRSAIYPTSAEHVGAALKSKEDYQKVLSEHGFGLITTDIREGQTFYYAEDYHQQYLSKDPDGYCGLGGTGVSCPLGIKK
Test [28] deals with T5, Fatty acid synthase. The experiment in a line: inhibition of human FAS-TE enzyme activity – biochemical, kinetic fluorescence intensity, dose response (AID 624326).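 Further: rate of fluorescence rise from hydrolysis of a fluorogenic O-methyl fluorescein ester substrate.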 Type of test: functional.
A short description of test [29]: blockers of HIV-1 envelope-mediated cell-cell fusion – cherry-pick, dose response (AID 652057). Type of test: functional, cell-based.
Test [30] in a line: viability loss in CEM21 cells – cell-based, CellTiter-Glo luminescence, cherry-picked, cytotoxicity control for viral fusion inhibitor project, dose response (AID 652042).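 Further: potency for signal decrease meaning cytotoxicity.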 Type of test: functional.
A short description of test [31]: blockers of HIV-1 ZM109 envelope-driven cell-cell fusion – HeLa effector, CEM target cells, luciferase, cherry-pick, dose response (AID 652058).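 Further: luciferase signal from HIV-1 Env mediated cell-cell fusion of effector and target cells.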 Type of test: functional, cell-based.
Test [32] in a line: off-target signal loss in HeLa-CEM21 co-culture – HeLa F-luc CTL cells, cherry-picked, counter-screen for HIV-1 Env fusion inhibitor project, dose response (AID 652040).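 Further: potency for signal decrease marking cytotoxic or nonspecific inhibition.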 The format is functional, cell-based.
Test [33] can be described thus: HIV-1 AD8 envelope cell-cell fusion blockers – cherry-pick, dose response (AID 652062).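 Further: luciferase signal from cell-cell fusion driven by HIV-1 clade B AD8 Env; potency is for inhibitors of fusion seen as a drop in luminescence.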 The format is functional, cell-based.

T4 sequence (P32842 whole entry): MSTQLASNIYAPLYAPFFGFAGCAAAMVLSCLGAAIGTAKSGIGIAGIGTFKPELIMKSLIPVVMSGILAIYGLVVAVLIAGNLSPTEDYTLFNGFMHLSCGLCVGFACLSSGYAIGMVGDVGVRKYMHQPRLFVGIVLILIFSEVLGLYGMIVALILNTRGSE
Sequence of DNA dC->dU-editing enzyme APOBEC-3G (Q9HC16 whole entry): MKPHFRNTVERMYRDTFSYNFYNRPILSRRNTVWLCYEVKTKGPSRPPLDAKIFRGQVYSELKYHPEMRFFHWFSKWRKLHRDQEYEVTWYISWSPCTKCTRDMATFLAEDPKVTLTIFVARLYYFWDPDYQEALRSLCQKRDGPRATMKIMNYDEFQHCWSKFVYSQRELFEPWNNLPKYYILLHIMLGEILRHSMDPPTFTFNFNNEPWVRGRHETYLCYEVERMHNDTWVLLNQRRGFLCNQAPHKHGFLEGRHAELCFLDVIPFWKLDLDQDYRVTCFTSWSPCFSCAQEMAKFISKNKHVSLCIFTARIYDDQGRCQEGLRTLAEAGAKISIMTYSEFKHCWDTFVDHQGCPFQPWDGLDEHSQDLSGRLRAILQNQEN

Consider `CC(=O)N1CCc2cc(C(=O)CN3CCN(c4cccc(Cl)c4)CC3)ccc21`, for which the EC50 in [1] was 47.2 nM (active); on Mu-type opioid receptor, 92500 nM (inactive); in test [2], 133 nM (active).
As to `C=C(C)C(=O)Nc1cccc(C2=NOC3(C2)C[C@@H](C(N)=O)N(C(=O)CC(c2ccccc2)c2ccccc2)C3)c1` (some centres undefined), the IC50 in test [3] was > 100000 nM (inactive); in [4] it was 15300 nM (active); in test [6], 6380 nM (active); in test [7] it was > 66600 nM (inactive); in test [8], 5400 nM (active). The EC50 in test [5] is 1940 nM (active). Besides, the CC50 in [9] was > 40000 nM (active).
In the case of `CCOC(=O)NN=C1c2ccccc2-c2nc3nonc3nc21`, the EC50 in [10] is 1710 nM (active); in test [11], 234 nM (active); with BJ [12] it was 2330 nM (active); in test [13], 593 nM (active); in test [14], 3640 nM (active); in test [15] it was 131 nM (active). Moreover, the EC50 was 587 nM (inconclusive) in the test with BJ [16]; 83 nM (active) in test [17]; 1350 nM (inconclusive) with BJ [19]; 2390 nM (active) in test [20]; 1860 nM (active) with BJ [23]; 27100 nM (active) in test [24]. In addition, the EC50 in test [25] was 2370 nM (active). Also, the IC50 was 223 nM (active) in test [18]; 3200 nM (active) in test [21]; 1670 nM (active) at Fatty acid synthase [26]; 155000 nM (inactive) in test [27]; 859 nM (active) on Fatty acid synthase [28]. The AC50 in test [22] was 1260 nM (active); in test [29], 4410 nM (active); in [30] it was 1700 nM (active); in [31], 2960 nM (active); in test [32], 3560 nM (active); in test [33] it was 3360 nM (active).

As usually defined, the CC50 is the concentration that lowers cell viability or growth by half. A word on the AC50: it is the concentration giving half of the maximal activity seen.
